Results on two compounds are retold here after patent US20030113901A1, “Cell production” (priority 2000, published 2003).

For assay [1], the system named is in vitro-derived neurectoderm (EBM7). Put plainly: Immunohistochemistry, TH: dopaminergic neuron formation from in vitro-derived neurectoderm (EBM7). It counts as cell-based. The settings on record: EBM7s, 10 ng/ml NGF days 7-10, 200 μM dopamine days 10-14 where present, day 14. How it is done:
FIG. 2: The culture of in vitro-derived neurectoderm in the presence of NGF and dopamine increases dopaminergic neuron formation. EBM^7s were seeded for 3 days in 50% DMEM/F12, 10 ng/ml FGF2, 0.1% ITSS, 1% FCS, and 10 ng/ml NGF, and for an additional 4 days in DMEM/F12, 0.1% ITSS, 200 μM ascorbic acid, with or without 200 μM dopamine. The resulting EBMs were analysed by immunohistochemistry using an anti-TH antibody. Positive staining for TH (dark regions) indicated dopaminergic neurons. A, EBM^7s cultured in the absence of NGF and dopamine; B, EBM^7s cultured in the presence of NGF; C, EBM^7s cultured in the presence of NGF and dopamine.
(§1) EBs were grown in the presence of the conditioned medium MEDII for 7 days (EBM^7) as previously described in International Patent Application PCT/AU99/00265 to applicants, the entire disclosure of which is incorporated herein by reference.
ES cells were seeded at a density of 1×10^5 cells/cm^2 In suspension culture in bacterial petri dishes in DMEM containing 50% MEDII. DMEM is defined as Dulbecco's Modified Eagles Medium (Gibco BRL), pH 7.4, containing high glucose and supplemented with 10% foetal calf serum (FCS; Commonwealth Serum Laboratories), 40 μg/ml gentamycin, 1 mM L-glutamine, 0.1 mM β-mercaptoethanol (β-ME). […]
(§2) Antibody staining for NF200 and tyrosine hydroxylase (TH) was detected by alkaline phoaphatase activity. […]

Assay [2] shares this test system. As to the kind of experiment: Immunohistochemistry, NF200: neuron formation from in vitro-derived neurectoderm (EBM7). It counts as cell-based. To be noted: EBM7s grown in the presence of 10 ng/ml NGF vs absence; anti-NF200 antibody, day 14. How it is done: FIG. 1: The culture of in vitro-derived neurectoderm in the presence of NGF increases neuron formation. EBM^7s were seeded for 3 days in 50% DMEM/F12, 10 ng/ml FGF2, 0.1% ITSS, 1% FCS, in the presence or absence of 10 ng/ml NGF, and for an additional 4 days in 50% DMEM/F12, 0.1% ITSS. The resulting EBMs were analysed by immunohistochemistry using an anti-NF200 antibody. Positive staining for NF200 (dark regions) indicated neurons. A, EBM^7s cultured in the absence of NGF; B, EBM^7s cultured in the presence of NGF.
as §1
ES cells were seeded at a density of 1×10^5 cells/cm^2 In suspension culture in bacterial petri dishes in DMEM containing 50% MEDII. DMEM is defined as Dulbecco's Modified Eagles Medium (Gibco BRL), pH 7.4, containing high glucose and supplemented with 10% foetal calf serum (FCS; Commonwealth Serum Laboratories), 40 μg/ml gentamycin, 1 mM L-glutamine, 0.1 mM β-mercaptoethanol (β-ME). The resulting cell aggregates (EBMs) were split 1:2 after 2 days and seeded into fresh DMEM containing 50% MEDII. […]
as §2

For “NGF: growth factor from the neural growth factor (NGF) family, used at 10 ng/ml”, in assay [1], the “TH positive cells (anti-TH antibody staining)” value is listed as “only a small proportion”. The “proportion of cells staining positive for NF200” value in assay [2] is recorded as “significantly increased”.
Regarding `NCCc1ccc(O)c(O)c1` [dopamine, reference compound], the “TH positive cells (anti-TH antibody staining)” value in assay [1] is listed as “significant increase”.
